Assays:
vaccinia virus [1] = format: cell-based
[2] = test system: gamma-herpes variant that expresses GFP under a CMV promoter (GHV-Bac-GFP); test: Herpes virus assay: GHV-Bac-GFP infection of 3T3 monolayers, cytopathic effect and GFP spread; format: cell-based, gamma-herpes virus; details: for HERPES / Herpes phenotype group: 3T3 cells, GHV-Bac-GFP; for HERPES: compound 10 μM, 7 days; for Herpes phenotype group: 10 μM, after 7 days
Procedure: All herpes viruses share the property of establishing life-long infection in their host. […] To determine whether tyrosine kinases participate in gamma-herpes virus infections, confluent monolayers of 3T3 cells were exposed and plated in optical 96 well dishes to the library of compounds of the present invention described herein for 1 hour. The cells were then infected with a gamma-herpes variant that expresses GFP under a CMV promoter (GHV-Bac-GFP), and replaced the compounds of the present invention at final concentration of 10 μM.

vaccinia virus [3] = format: cell-based; remark: listed apart in the source
vaccinia virus [4] = details: background statement, Reeves et al. 2005; cited from earlier work

Row | Compound | Class category of infected monolayers in plaque assay (vaccinia virus [1]) | Effects in Vaccinia assays (vaccinia virus [1]) | VACCINIA PLAQUE ASSAY 2 (vaccinia virus [1]) | VACCINIA Plaque Assay (vaccinia virus [1]) | Effects in Herpes assay [2] | HERPES [2] | Plaque phenotype due to drug treatment (FIGS. 1, 2, 4) (vaccinia virus [1]) | Herpes phenotype group [2] | Actin protein tails (vaccinia virus [3]) | Plaque phenotype of known Abl-/Src-family kinase inhibitors (vaccinia virus [4])
1 | CC(=O)Nc1cccc(-c2ccc3c(-c4ccc(Br)c(F)c4)n[nH]c3n2)c1 [APcK-43] | Class III | had effects | NO PLAQUES | NO PLAQUES | had effects | DE- LAYED CPE |  |  |  | 
2 | Nc1cccc(-c2ccc3nnc(-c4ccco4)n3n2)c1 [LG2-71] | Class III | had effects | PINPOINTS | SMALL PLAQUES, WITH COMETS | had effects | ENTRY OR EGRESS INHIB- ITOR | small plaques with comets | (ii) |  | 
3 | COc1ccccc1Nc1cc(-c2ccc([N+](=O)[O-])cc2)ncn1 [Eph2_wbz 203] | Class III |  | SMALL PLAQUES | SMALL PLAQUES, STILL SEE COMETS |  |  | small plaques with comets |  | wild-type actin protein tails | 
4 | Cc1ccc(NC(=O)c2ccc(CN3CCN(Cc4ccc(F)cc4)CC3)cc2)cc1Nc1nccc(-c2cccnc2)n1 [STI-F] | Class III |  | NO PLAQUES | PINPOINT PLAQUES |  |  |  |  | few actin tails | 
5 | Brc1cnc2c(Nc3ccccc3)nccn12 [LG2-55] |  | had effects |  | PINPOINT PLAQUES | had effects | DE- LAYED CPE |  | (iii) |  | 
6 | Cc1ccc(NC(=O)c2ccc(CN3CCN(C)CC3)cc2)cc1Nc1nccc(-c2cccnc2)n1 [CGP-2, reference compound] |  |  |  |  |  | ENTRY OR EGRESS INHIB- ITOR |  | (ii) |  | somewhat reduced plaque size and loss of comets
7 | CCOC(=O)c1ccc(-c2ccc3c(-c4ccc(F)cc4)n[nH]c3n2)cc1 [APcK-53] |  |  |  |  |  | DE- LAYED CPE |  | (iii) |  | 
8 | CC(=O)Nc1cccc(-c2ccc3c(-c4ccc(F)cc4)n[nH]c3n2)c1 [APcK-103] | Class III | had effects | NO PLAQUES | NO PLAQUES | had effects | DE- LAYED CPE |  | (iii) |  | 

From patent US8268809B2, “Kinase inhibitors for preventing or treating pathogen infection and method of use thereof” (priority 2006, dated 2012)
